# Assay results from patent publication US10143199B2, “Method of killing bedbug eggs” (Ecolab USA Inc., priority 2012, dated 2018).
# Assays:
# Format in all cases: in vivo
# Bedbug eggs [1] = assay: Treating bedbug eggs on a substrate with test composition at pH 9 to 10 (Example 1); conditions: 1% solution, pH of 9 to 10, 100° F., 5 minutes exposure
# Description: Bedbug eggs on a substrate were exposed to a 100° F. test composition for 5 minutes and then examined. […] Water by itself killed about 20% of the bedbug eggs. And, complete kill was accomplished by a commercial bedbug killer sold under the tradename Transport.
# Bedbug eggs [2] = assay: Treating bedbug eggs with anionic compounds near neutral pH (Example 2), kill of eggs; conditions: pH 7-8, 100° F., 5 min
# Description: (§1) Aqueous test compositions of each of several anionic compounds prepared and adjusted to near neutral pH of about 7-8. Bedbug eggs were then contacted with a 100° F. test composition for 5 min.
# Bedbug Eggs and Nymphs = assay: Treating bedbug eggs with anionic compounds near neutral pH (Example 2), kill of eggs and nymphs; conditions: pH 7-8, 100° F., 5 min
# Description: as §1
Molecule,kill of bedbug eggs (Bedbug eggs [1]),% Kill of Bedbug Eggs (Bedbug eggs [2]; 0.1% aqueous test composition),% Kill of Bedbug Eggs (Bedbug eggs [2]; 1% aqueous test composition),% Kill of Bedbug Eggs and Nymphs (Bedbug Eggs and Nymphs; 0.1% aqueous test composition),% Kill of Bedbug Eggs and Nymphs (Bedbug Eggs and Nymphs; 1% aqueous test composition)
CCCCCCCCCCCCOS(=O)(=O)[O-].[Na+] [sodium lauryl sulfate],did not kill,70%,75%,95%,100%
CCCCCCCCS(=O)(=O)[O-].[Na+] [sodium octyl sulfonate],,,90%,,95%
sodium dodecylbenzene sulfonate,,,30%,,30%
sodium lauryl ether sulfate,,,35%,,35%
